The source of these data is patent US20230113037A1 (Bayer Aktiengesellschaft, priority 2019, published 2023).

The target of assay [1] is T1, AHR (Homo sapiens, UniProt P35869).
T1 construct: U87 MG glioblastoma cells (ATCC #HTB-14) endogenously expressing AHR; endogenous in cells; host or cells: U87 MG glioblastoma cells (ATCC #HTB-14)
T1 sequence (P35869 11-848): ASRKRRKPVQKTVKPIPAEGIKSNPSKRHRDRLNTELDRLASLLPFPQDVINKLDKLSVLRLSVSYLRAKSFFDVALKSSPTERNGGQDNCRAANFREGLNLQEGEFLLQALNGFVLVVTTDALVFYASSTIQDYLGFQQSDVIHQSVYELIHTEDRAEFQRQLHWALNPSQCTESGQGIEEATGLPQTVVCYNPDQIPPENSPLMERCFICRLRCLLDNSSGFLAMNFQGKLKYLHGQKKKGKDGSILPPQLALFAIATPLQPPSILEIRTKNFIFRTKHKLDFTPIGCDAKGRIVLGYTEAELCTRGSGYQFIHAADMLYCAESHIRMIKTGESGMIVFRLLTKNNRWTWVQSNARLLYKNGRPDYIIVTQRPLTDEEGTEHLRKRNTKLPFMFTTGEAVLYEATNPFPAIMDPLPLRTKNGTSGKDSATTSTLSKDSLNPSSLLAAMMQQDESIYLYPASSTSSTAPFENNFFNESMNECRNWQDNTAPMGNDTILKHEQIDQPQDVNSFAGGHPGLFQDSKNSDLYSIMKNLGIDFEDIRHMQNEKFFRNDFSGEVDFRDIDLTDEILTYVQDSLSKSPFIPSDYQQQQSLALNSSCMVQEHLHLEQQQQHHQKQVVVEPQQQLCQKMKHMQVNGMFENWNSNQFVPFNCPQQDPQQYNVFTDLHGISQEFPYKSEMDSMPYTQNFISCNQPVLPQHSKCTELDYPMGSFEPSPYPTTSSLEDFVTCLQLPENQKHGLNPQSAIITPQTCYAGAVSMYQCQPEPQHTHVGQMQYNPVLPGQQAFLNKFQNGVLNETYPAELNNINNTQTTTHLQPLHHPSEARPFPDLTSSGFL
In words: In vitro assay 1: antagonism in human cell line (AHR transactivation, firefly luciferase reporter, kynurenic acid prestimulated). As to conditions: AHR Antagonism Human IC50 [M]. It counts as cell-based. In a few lines:
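U87 MG glioblastoma cells with endogenous AHR, stably carrying a DRE-driven firefly luciferase reporter and constitutive Renilla reporter, prestimulated with kynurenic acid before compound addition. Firefly and Renilla read by dual luciferase; Renilla flags toxicity; normalized to controls (150 μM kynurenic acid + 5 μM staurosporine as full inhibition); repeat values averaged or median.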

Assay [2] addresses T2, AHR (Mus musculus, UniProt P30561).
T2 sequence (P30561 1-848 P471L/N533S/M589L): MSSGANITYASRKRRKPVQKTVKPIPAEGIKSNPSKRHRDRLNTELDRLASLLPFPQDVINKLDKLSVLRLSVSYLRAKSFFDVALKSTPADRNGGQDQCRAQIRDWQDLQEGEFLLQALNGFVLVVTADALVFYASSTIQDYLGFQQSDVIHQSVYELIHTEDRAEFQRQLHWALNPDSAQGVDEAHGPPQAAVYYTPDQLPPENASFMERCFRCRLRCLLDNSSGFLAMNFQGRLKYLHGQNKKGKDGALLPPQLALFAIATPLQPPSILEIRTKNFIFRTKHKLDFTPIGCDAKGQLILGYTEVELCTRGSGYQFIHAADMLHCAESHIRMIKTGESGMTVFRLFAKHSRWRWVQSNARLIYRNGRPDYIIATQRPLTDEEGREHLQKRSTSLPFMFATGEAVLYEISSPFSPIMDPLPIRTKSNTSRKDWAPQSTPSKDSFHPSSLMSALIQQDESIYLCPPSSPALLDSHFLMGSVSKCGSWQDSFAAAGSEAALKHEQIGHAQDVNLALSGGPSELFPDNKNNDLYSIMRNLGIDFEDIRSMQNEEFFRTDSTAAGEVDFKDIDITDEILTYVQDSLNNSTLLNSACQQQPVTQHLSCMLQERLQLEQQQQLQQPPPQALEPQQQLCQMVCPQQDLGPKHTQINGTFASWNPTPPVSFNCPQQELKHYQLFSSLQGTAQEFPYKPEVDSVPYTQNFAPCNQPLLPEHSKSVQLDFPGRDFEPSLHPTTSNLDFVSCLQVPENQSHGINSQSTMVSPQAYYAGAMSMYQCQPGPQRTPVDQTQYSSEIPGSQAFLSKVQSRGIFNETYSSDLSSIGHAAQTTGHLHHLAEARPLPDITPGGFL
In words: In vitro assay 3: antagonism in mouse cell line (AHR transactivation, firefly luciferase reporter, kynurenic acid prestimulated). It counts as cell-based. In outline: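 Mouse cells stably carrying a DRE-driven, AHR-inducible firefly luciferase reporter were prestimulated with the endogenous agonist kynurenic acid before compound addition. Luciferase activity was measured by luminescence and normalized to positive and negative controls, with cells lacking kynurenic acid serving as full-inhibition control. Repeat tests are reported as mean or median.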

Where [3] appears, read: mouse Hepa 1c1c7 cells, 200 μM kynurenic acid, 20 hours, read-out: AHR Antagonism Mouse IC50.
Setting [4] is: read-out: AHR Antagonism Mouse IC50, mouse Hepa 1c1c7 cells, 200 μM kynurenic acid, 20 hours.
[5] abbreviates: Hepa 1c1c7 cells, 200 μM kynurenic acid, 20 hours, firefly luciferase reporter, read-out: AHR Antagonism Mouse IC50.

“And” between values parts separate entries of the source, which are not always exact repeats. Equal values may be shown once. Read-outs that look alike come from different tables or passages of the source. Some results are limits rather than exact numbers.

What is called IC50 is the point on the concentration scale where inhibition reaches its midpoint. Regarding `COc1ccc(-c2nc3c4cccc(C#N)c4nc(N[C@@H]4CCCCNC4=O)n3n2)cc1` [Example 721, 2-(4-methoxyphenyl)-5-{[(3R)-2-oxoazepan-3-yl]amino}[1,2,4]triazolo[1,5-c]quinazoline-7-carbonitrile], the IC50 against AHR [1] worked out at 2.47e-09 M; at AHR [2] (setting [3]), 10.6 nM.

Regarding `O=C1NCCCC[C@H]1Nc1nc2ccccc2c2nc(-c3ccc(Cl)cc3OC(F)(F)F)nn12` [Example 517, (3R)-3-({2-[4-chloro-2-(trifluoromethoxy)phenyl][1,2,4]triazolo[1,5-c]quinazolin-5-yl}amino)azepan-2-one], the IC50 on AHR [1] is 1.47e-09 M; at AHR [2] (setting [3]), 2.31 nM.

For `CC[C@@H](Nc1nc2c(Br)cccc2c2nc(-c3ccc(Cl)cc3OC(F)F)nn12)C(N)=O` [Example 577, (2R)-2-({7-bromo-2-[4-chloro-2-(difluoromethoxy)phenyl][1,2,4]triazolo[1,5-c]quinazolin-5-yl}amino)butanamide], the IC50 at AHR [1] is 6.6e-10 M; at AHR [2] (setting [4]), 0.281 nM.

Consider `COc1ccccc1-c1nc2c3ccccc3nc(N[C@H]3CCCCNC3=O)n2n1` [Example 60, (3S)-3-{[2-(2-methoxyphenyl)[1,2,4]triazolo[1,5-c]quinazolin-5-yl]amino}azepan-2-one], for which the IC50 was more than 2e-05 M at AHR [1] and 131 nM on AHR [2] (setting [3]).

On to `Cn1cc(-c2nc3c4ccccc4nc(NC4CCCNC4=O)n3n2)cn1` (stereo not drawn) [Example 13, 3-{[2-(1-methyl-1H-pyrazol-4-yl)[1,2,4]triazolo[1,5-c]quinazolin-5-yl]amino}piperidin-2-one], for which the IC50 on AHR [1] was determined as 1.21e-06 M; on AHR [2] (setting [3]), 7260 nM.

Take `Cc1ccccc1-c1nc2c3ccccc3nc(N[C@@H]3CCCCNC3=O)n2n1` [Example 42, (3R)-3-{[2-(2-methylphenyl)[1,2,4]triazolo[1,5-c]quinazolin-5-yl]amino}azepan-2-one]: the IC50 is 3.03e-10 M at AHR [1] and 0.158 nM at AHR [2] (setting [4]).

On to `COc1ccc(-c2nc3c4ccccc4nc(N[C@H](C)C(=O)NCCN4CCN(C(=O)OC(C)(C)C)CC4)n3n2)cc1` [Example 884, tert-butyl 4-[2-({N-[2-(4-methoxyphenyl)[1,2,4]triazolo[1,5-c]quinazolin-5-yl]-D-alanyl}amino)ethyl]piperazine-1-carboxylate], for which the IC50 is 6.66e-09 M on AHR [1] (firefly luciferase reporter) and 8.31 nM on AHR [2] (setting [5]).

`CC[C@H](Nc1nc2ccccc2c2nc(-c3ccc(Br)cc3OC(F)(F)F)nn12)C(N)=O` [Example 524, (2S)-2-({2-[4-bromo-2-(trifluoromethoxy)phenyl][1,2,4]triazolo[1,5-c]quinazolin-5-yl}amino)butanamide]: the results for the IC50 against AHR [1] and at AHR [2] (setting [3]) were 1.3e-07 M and 17.7 nM, respectively.

On to `CN(C)Cc1noc(-c2nc3c4ccccc4nc(N[C@@H]4CCCCNC4=O)n3n2)n1` [Example 304, (3R)-3-[(2-{3-[(Dimethylamino)methyl]-1,2,4-oxadiazol-5-yl}[1,2,4]triazolo[1,5-c]quinazolin-5-yl)amino]azepan-2-one], for which the IC50 on AHR [1] turned out to be 2.86e-06 M; on AHR [2] (setting [3]) it was 1830 nM.

For the compound `O=C1NCCCC[C@H]1Nc1nc2c(C(F)(F)F)cccc2c2nc(-c3cn[nH]c3)nn12` [Example 677, (3R)-3-{[2-(1H-pyrazol-4-yl)-7-(trifluoromethyl)[1,2,4]triazolo[1,5-c]quinazolin-5-yl]amino}azepan-2-one], the IC50 was 1.33e-08 M against AHR [1] and 53.1 nM at AHR [2] (setting [3]).

`COc1ccc(-c2nc3c4cccc(C)c4nc(N[C@H]4CCCCNC4=O)n3n2)cc1` [Example 144]: the IC50 on AHR [1] was more than 2e-06 M; at AHR [2] (setting [3]), 62.7 nM.

In the case of `COc1cccc(-c2nc3c4cccc(C)c4nc(N[C@H]4CCCCNC4=O)n3n2)c1` [Example 141], the IC50 against AHR [1] was determined as 2.84e-08 M; at AHR [2] (setting [3]), 83.2 nM.

As to `N#Cc1cccc2c1nc(N[C@@H]1CNCCNC1=O)n1nc(-c3cnn(C4CC4)c3)nc21` [Example 932, 2-(1-cyclopropyl-1H-pyrazol-4-yl)-5-{[(6R)-5-oxo-1,4-diazepan-6-yl]amino}[1,2,4]triazolo[1,5-c]quinazoline-7-carbonitrile], the IC50 against AHR [1] (firefly luciferase reporter) is 1.48e-07 M; at AHR [2] (setting [5]) it was 173 nM.

For the compound `CC(C)n1cc(-c2nc3c4cccc(Cl)c4nc(N[C@@H]4CNCCNC4=O)n3n2)cn1` [Example 956, (6R)-6-({7-chloro-2-[1-(propan-2-yl)-1H-pyrazol-4-yl][1,2,4]triazolo[1,5-c]quinazolin-5-yl}amino)-1,4-diazepan-5-one], the figures for the IC50 on AHR [1] (firefly luciferase reporter) and at AHR [2] (setting [5]) were 5.77e-09 M and 8.5 nM, respectively.

With `COc1cccc(-c2nc3c4ccccc4nc(NC4CCCNC4=O)n3n2)c1` (stereo not drawn) [Example 77, 3-{[2-(3-methoxyphenyl)[1,2,4]triazolo[1,5-c]quinazolin-5-yl]amino}piperidin-2-one], the IC50 against AHR [1] stood at 6.52e-08 M; at AHR [2] (setting [3]), 52.1 nM.

In the case of `CCCCNC(=O)[C@H](CC)Nc1nc2c(Br)cccc2c2nc(-c3ccc(Cl)cc3OC(F)(F)F)nn12` [Example 813, (2S)-2-({7-bromo-2-[4-chloro-2-(trifluoromethoxy)phenyl][1,2,4]triazolo[1,5-c]quinazolin-5-yl}amino)-N-butylbutanamide], the IC50 against AHR [1] (firefly luciferase reporter) is more than 2e-06 M; on AHR [2] (setting [5]), 1920 nM and > 2000 nM.

In the case of `N#Cc1cccc2c1nc(N[C@@H]1CNCCNC1=O)n1nc(-c3cnn(C4CCC4)c3)nc21` [Example 933, 2-(1-cyclobutyl-1H-pyrazol-4-yl)-5-{[(6R)-5-oxo-1,4-diazepan-6-yl]amino}[1,2,4]triazolo[1,5-c]quinazoline-7-carbonitrile], the values for the IC50 at AHR [1] (firefly luciferase reporter) and at AHR [2] (setting [5]) were 7.39e-08 M and 138 nM, respectively.

`COc1cccc(-c2nc3c4ccccc4nc(N[C@@H](CCCCNC(=O)OC(C)(C)C)C(N)=O)n3n2)c1` [Example 101, tert-butyl[(5S)-6-amino-5-{[2-(3-methoxyphenyl)[1,2,4]triazolo[1,5-c]quinazolin-5-yl]amino}-6-oxohexyl]carbamate]: the IC50 amounted to 3.48e-06 M against AHR [1] and 145 nM on AHR [2] (setting [3]).

As for `COc1ccc(-c2nc3c4cccc(OC)c4nc(N[C@@H]4CNCCNC4=O)n3n2)cc1` [Example 265, (6R)-6-{[7-methoxy-2-(4-methoxyphenyl)[1,2,4]triazolo[1,5-c]quinazolin-5-yl]amino}-1,4-diazepan-5-one], the IC50 at AHR [1] amounted to 2.38e-07 M; at AHR [2] (setting [3]) it was 373 nM.

Consider `CCCCNC(=O)[C@H](C)Nc1nc2ccccc2c2nc(-c3ccc(Cl)cc3OC(F)F)nn12` [Example 533, N-butyl-N^2-{2-[4-chloro-2-(difluoromethoxy)phenyl][1,2,4]triazolo[1,5-c]quinazolin-5-yl}alaninamide], for which the results for the IC50 on AHR [1] and on AHR [2] (setting [3]) were 3.72e-09 M and 3.94 nM, respectively.

With `CC(C)n1cc(-c2nc3c4cccc(Cl)c4nc(N[C@@H]4CCCCNC4=O)n3n2)cn1` [Example 817, (3R)-3-({7-chloro-2-[1-(propan-2-yl)-1H-pyrazol-4-yl][1,2,4]triazolo[1,5-c]quinazolin-5-yl}amino)azepan-2-one], the IC50 against AHR [1] (firefly luciferase reporter) came out at 5.24e-10 M; on AHR [2] (setting [5]), 1.94 nM.
